For 27 molecules, IC50 results are on record in patent US12011444B2, “N-substituted indole derivatives as PGE2 receptor modulators” (Idorsia Pharmaceuticals Ltd, priority 2015, dated 2024).

The target of one assay is PTGER2 (EP2) (Homo sapiens (Human), UniProt P43116). The assay can be described thus: hEP2 b-arrestin assay (PathHunter HEK 293 PTGER2 b-arrestin cells). It is filed as cell-based. The following applies: hEP2 b-arrestin assay (values without asterisk). The method, boiled down: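 HEK293 cells expressing ProLink-tagged EP2 and EA-fused β-arrestin 2 (enzyme fragment complementation) were seeded 24 h, pre-incubated with compound 15 min at 37 °C, then stimulated with 5 μM PGE2 (final) for 120 min.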
Sequence of PTGER2 (EP2) (P43116 whole entry, the tested form may be a part): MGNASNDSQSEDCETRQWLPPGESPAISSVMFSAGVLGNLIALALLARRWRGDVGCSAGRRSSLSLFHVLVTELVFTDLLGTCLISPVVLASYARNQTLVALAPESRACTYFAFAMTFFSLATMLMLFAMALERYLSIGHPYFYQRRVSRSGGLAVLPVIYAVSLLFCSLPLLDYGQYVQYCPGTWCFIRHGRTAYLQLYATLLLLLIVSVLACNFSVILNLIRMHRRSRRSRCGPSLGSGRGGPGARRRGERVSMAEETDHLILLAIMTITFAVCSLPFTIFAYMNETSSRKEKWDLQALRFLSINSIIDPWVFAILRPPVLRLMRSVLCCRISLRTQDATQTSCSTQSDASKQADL

A further assay concerns the target PTRGER4 (EP4) (Homo sapiens (Human), UniProt P35408). In words: hEP4 b-arrestin assay (PathHunter HEK 293 PTGER4 b-arrestin cells). The assay is classed as cell-based. The following applies: hEP4 b-arrestin assay (values without asterisk). The method, boiled down:
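Stably transfected HEK293 cells carrying EP4–ProLink and β-arrestin 2–EA (β-gal fragment complementation), pre-incubated with compound 15 min at 37 °C, then stimulated with PGE2 (20 nM final) for 120 min at 37 °C. Chemiluminescence read after 1 h detection reagent at room temperature; activity per concentration expressed as percent of DMSO control.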

Sequence of PTRGER4 (EP4) (P35408 whole entry, looked up, the tested form may be a part): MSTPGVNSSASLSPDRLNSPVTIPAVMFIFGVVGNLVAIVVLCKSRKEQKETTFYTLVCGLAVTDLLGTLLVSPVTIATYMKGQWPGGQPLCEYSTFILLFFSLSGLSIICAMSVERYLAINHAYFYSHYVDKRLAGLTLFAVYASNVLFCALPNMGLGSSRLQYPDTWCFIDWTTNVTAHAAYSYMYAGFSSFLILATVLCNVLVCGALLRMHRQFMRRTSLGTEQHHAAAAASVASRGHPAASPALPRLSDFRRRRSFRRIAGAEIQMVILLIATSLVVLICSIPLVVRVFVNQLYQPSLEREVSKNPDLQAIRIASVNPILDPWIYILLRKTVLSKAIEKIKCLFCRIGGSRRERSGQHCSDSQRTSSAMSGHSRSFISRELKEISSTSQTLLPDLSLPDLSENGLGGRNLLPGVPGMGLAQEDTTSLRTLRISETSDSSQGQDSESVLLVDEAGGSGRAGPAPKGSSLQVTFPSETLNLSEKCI

As to `CCOc1cc(-c2cc(NCCn3c(C#N)cc4c(C)c(F)c(F)cc43)ncn2)ccc1OCC(=O)O` [Example 893, (4-{6-[2-(2-Cyano-5,6-difluoro-4-methyl-indol-1-yl)-ethylamino]-pyrimidin-4-yl}-2-ethoxy-phenoxy)-acetic acid], the IC50 came to 0.042 µM at PTGER2 (EP2) and 0.118 µM on PTRGER4 (EP4).

Consider `CCOc1cc(-c2cc(NCCn3c(C#N)cc4c(C)c(F)c(F)cc43)ncn2)ccc1NCC(=O)O` [Example 895, (4-{6-[2-(2-Cyano-5,6-difluoro-4-methyl-indol-1-yl)-ethylamino]-pyrimidin-4-yl}-2-ethoxy-phenylamino)-acetic acid], for which the IC50 was determined as 0.02 µM against PTGER2 (EP2) and 0.066 µM against PTRGER4 (EP4).

With `CCOc1cc(-c2cc(NCCn3c(C#N)cc4cccc(F)c43)ncn2)ccc1NCC(=O)O` [Example 896, (4-{6-[2-(2-Cyano-7-fluoro-indol-1-yl)-ethylamino]-pyrimidin-4-yl}-2-ethoxy-phenylamino)-acetic acid], the IC50 against PTGER2 (EP2) worked out at 0.002 µM; on PTRGER4 (EP4) it was 0.034 µM.

For the molecule `CCOC(=O)Cc1ccc(-c2cc(NCCn3c(C)cc4c(OC)ccc(F)c43)ncn2)cc1` [Example 897, (4-{6-[2-(7-Fluoro-4-methoxy-2-methyl-indol-1-yl)-ethylamino]-pyrimidin-4-yl}-phenyl)-acetic acid ethyl ester], the 50% inhibitory concentration (IC50) at PTGER2 (EP2) is 0.38 µM; against PTRGER4 (EP4), 0.453 µM.

On to `COc1cc(-c2cc(NCCn3c(C#N)cc4c(OC)ccc(F)c43)ncn2)ccn1` [Example 898, 7-Fluoro-4-methoxy-1-{2-[6-(2-methoxy-pyridin-4-yl)-pyrimidin-4-ylamino]-ethyl}-1H-indole-2-carbonitrile], for which the IC50 against PTGER2 (EP2) was 0.041 µM; at PTRGER4 (EP4) it was 0.123 µM.

For `CCOc1cc(-c2cc(NCCn3c(C#N)cc4c(OC)ccc(F)c43)ncn2)ccc1O` [Example 899, 1-{2-[6-(3-Ethoxy-4-hydroxy-phenyl)-pyrimidin-4-ylamino]-ethyl)-7-fluoro-4-methoxy-1H-indole-2-carbonitrile], the values for the IC50 at PTGER2 (EP2) and at PTRGER4 (EP4) were 0.005 µM and 0.016 µM, respectively.

For `COc1ccc(F)c2c1cc(C#N)n2CCNc1cc(-c2ccc(C(N)=O)s2)ncn1` [Example 900, 5-{6-[2-(2-Cyano-7-fluoro-4-methoxy-indol-1-yl)-ethylamino]-pyrimidin-4-yl)-thiophene-2-carboxylic acid amide], the values for the IC50 against PTGER2 (EP2) and on PTRGER4 (EP4) were 0.026 µM and 0.022 µM, respectively.

Consider `N#Cc1cc2cccc(F)c2n1CCNc1cc(-c2cc(F)c(C(=O)O)s2)ncn1` [Example 901, 5-{6-[2-(2-Cyano-7-fluoro-indol-1-yl)-ethylamino]-pyrimidin-4-yl}-3-fluoro-thiophene-2-carboxylic acid], for which the IC50 against PTGER2 (EP2) amounted to 0.007 µM; against PTRGER4 (EP4) it was 0.076 µM.

Turning to `COc1cccc2c1cc(C#N)n2CCNc1cc(-c2cc(F)c(C(=O)O)s2)ncn1` [Example 902, 5-{6-[2-(2-Cyano-4-methoxy-indol-1-yl)-ethylamino]-pyrimidin-4-yl}-3-fluoro-thiophene-2-carboxylic acid], the IC50 against PTGER2 (EP2) came out at 0.003 µM; at PTRGER4 (EP4) it was 0.008 µM.

`N#Cc1cc2c(Cl)cccc2n1CCNc1cc(-c2cc(F)c(C(=O)O)s2)ncn1` [Example 903, 5-{6-[2-(4-Chloro-2-cyano-indol-1-yl)-ethylamino]-pyrimidin-4-yl}-3-fluoro-thiophene-2-carboxylic acid]: the results for the IC50 against PTGER2 (EP2) and on PTRGER4 (EP4) were 0.004 µM and 0.069 µM, respectively.

Consider `N#Cc1cc2c(Cl)cc(F)c(F)c2n1CCNc1cc(-c2cc(F)c(C(=O)O)s2)ncn1` [Example 904, 5-{6-[2-(4-Chloro-2-cyano-6,7-difluoro-indol-1-yl)-ethylamin0]-pyrimidin-4-yl}-3-fluoro-thiophene-2-carboxylic acid], for which the IC50 is 0.001 µM on PTGER2 (EP2) and 0.049 µM against PTRGER4 (EP4).

Regarding `CCCCOc1cc(-c2cc(NCCn3c(C#N)cc4c(OC)ccc(F)c43)ncn2)cc(F)c1C(=O)O` [Example 905, 2-Butoxy-4-{6-[2-(2-cyano-7-fluoro-4-methoxy-indol-1-yl)-ethylamino]-pyrimidin-4-yl}-6-fluoro-benzoic acid], the IC50 against PTGER2 (EP2) turned out to be 0.022 µM; at PTRGER4 (EP4), 0.005 µM.

In the case of `CCCCOc1cc(-c2cc(NCCn3c(C#N)cc4c(OC)ccc(F)c43)ncn2)cc(Cl)c1C(=O)O` [Example 906, 2-Butoxy-6-chloro-4-{6-[2-(2-cyano-7-fluoro-4-methoxy-indol-1-yl)-ethylamino]-pyrimidin-4-yl}-benzoic acid], the IC50 turned out to be 0.03 µM against PTGER2 (EP2) and 0.003 µM on PTRGER4 (EP4).

For the molecule `CCCOc1cc(-c2cc(NCCn3c(C#N)cc4c(OC)ccc(F)c43)ncn2)cc(Cl)c1C(=O)O` [Example 907, 2-Chloro-4-{6-[2-(2-cyano-7-fluoro-4-methoxy-indol-1-yl)-ethylamino]-pyrimidin-4-yl}-6-propoxy-benzoic acid], the results for the IC50 against PTGER2 (EP2) and against PTRGER4 (EP4) were 0.024 µM and 0.012 µM, respectively.

As to `CCCOc1cc(-c2cc(NCCn3c(C#N)cc4c(OC)ccc(F)c43)ncn2)cc(F)c1C(=O)O` [Example 908, 4-{6-[2-(2-Cyano-7-fluoro-4-methoxy-indol-1-yl)-ethylamino]-pyrimidin-4-yl}-2-fluoro-6-propoxy-benzoic acid], the values for the IC50 at PTGER2 (EP2) and on PTRGER4 (EP4) were 0.017 µM and 0.033 µM, respectively.

Consider `CCOc1cc(-c2cc(NCCn3c(C#N)cc4c(Cl)cccc43)ncn2)sc1C(=O)O` [Example 909, 5-{6-[2-(4-Chloro-2-cyano-indol-1-yl)-ethylamino]-pyrimidin-4-yl}-3-ethoxy-thiophene-2-carboxylic acid], for which the IC50 at PTGER2 (EP2) came out at 0.003 µM; against PTRGER4 (EP4), 0.014 µM.

As to `COc1cccc2c1cc(C#N)n2CCNc1cc(-c2cc(C(F)(F)F)c(C(=O)O)s2)ncn1` [Example 910, 5-{6-[2-(2-Cyano-4-methoxy-indol-1-yl)-ethylamino]-pyrimidin-4-yl}-3-trifluoromethyl-thiophene-2-carboxylic acid], the IC50 against PTGER2 (EP2) came to 0.023 µM; at PTRGER4 (EP4), 0.01 µM.

For `N#Cc1cc2c(Cl)cccc2n1CCNc1cc(-c2cc(C(F)(F)F)c(C(=O)O)s2)ncn1` [Example 911, 5-{6-[2-(4-Chloro-2-cyano-indol-1-yl)-ethylamino]-pyrimidin-4-yl}-3-trifluoromethyl-thiophene-2-carboxylic acid], the half-maximal inhibitory concentration (IC50) came out at 0.007 µM at PTGER2 (EP2) and 0.027 µM at PTRGER4 (EP4).

For the molecule `N#Cc1cc2c(Cl)cc(F)c(F)c2n1CCNc1cc(-c2cc(C(F)(F)F)c(C(=O)O)s2)ncn1` [Example 912, 5-{6-[2-(4-Chloro-2-cyano-6,7-difluoro-indol-1-yl)-ethylamino]pyrimidin-4-yl}-3-trifluoromethyl-thiophene-2-carboxylic acid], the results for the IC50 at PTGER2 (EP2) and at PTRGER4 (EP4) were 0.004 µM and 0.029 µM, respectively.

For the molecule `COc1ccc(F)c2c1cc(C#N)n2CCNc1cc(-c2cc(Cl)c(C(=O)O)c(OCC(C)C)c2)ncn1` [Example 913, 2-Chloro-4-{6-[2-(2-cyano-7-fluoro-4-methoxy-indol-1-yl)-ethylamino]-pyrimidin-4-yl}-6-isobutoxy-benzoic acid], the figures for the IC50 against PTGER2 (EP2) and against PTRGER4 (EP4) were 0.013 µM and 0.005 µM, respectively.

Consider `CCOc1cc(-c2cc(NCCn3c(C#N)cc4c(Cl)cc(F)c(F)c43)ncn2)ccc1OCC(=O)O` [Example 914, (4-{6-[2-(4-Chloro-2-cyano-6,7-difluoro-indol-1-yl)-ethylamino]-pyrimidin-4-yl}-2-ethoxy-phenoxy)-acetic acid], for which the IC50 on PTGER2 (EP2) was determined as 0.032 µM; on PTRGER4 (EP4), 0.068 µM.

In the case of `CCOc1cc(-c2cc(NCCn3c(C#N)cc4c(Cl)cccc43)ncn2)ccc1NCC(=O)O` [Example 915, (4-{6-[2-(4-Chloro-2-cyano-indol-1-yl)-ethylamino]-pyrimidin-4-yl}-2-ethoxy-phenylamino)-acetic acid], the figures for the IC50 at PTGER2 (EP2) and at PTRGER4 (EP4) were 0.012 µM and 0.027 µM, respectively.

On to `CCOc1cc(-c2cc(NCCn3c(C#N)cc4c(Cl)cc(F)c(F)c43)ncn2)ccc1NCC(=O)O` [Example 916, (4-{6-[2-(4-Chloro-2-cyano-6,7-difluoro-indol-1-yl)-ethylamino]-pyrimidin-4-yl}-2-ethoxy-phenylamino)-acetic acid], for which the IC50 was 0.02 µM against PTGER2 (EP2) and 0.018 µM against PTRGER4 (EP4).

For the molecule `COc1ccc(F)c2c1cc(C#N)n2CCNc1cc(-c2ccc(C(=O)O)c(OC(F)F)c2)ncn1` [Example 917, 4-{6-[2-(2-Cyano-7-fluoro-4-methoxy-indol-1-yl)-ethylamino]-pyrimidin-4-yl}-2-difluoromethoxy-benzoic acid], the IC50 against PTGER2 (EP2) came out at 0.024 µM; on PTRGER4 (EP4), 0.035 µM.

Regarding `COc1n[nH]c2cc(-c3cc(NCCn4c(C#N)cc5c(OC)ccc(F)c54)ncn3)ccc12` [Example 918, 7-Fluoro-4-methoxy-1-{2-[6-(3-methoxy-1H-indazol-6-yl)-pyrimidin-4-ylamino]-ethyl}-1H-indole-2-carbonitrile], the IC50 against PTGER2 (EP2) was 0.026 µM; at PTRGER4 (EP4) it was 0.073 µM.

As to `COc1ccc(F)c2c1cc(C#N)n2CCNc1cc(-c2ccc3c(c2)N(C)C(=O)NC3)ncn1` [Example 919, 7-Fluoro-4-methoxy-1-{2-[6-(1-methyl-2-oxo-1,2,3,4-tetrahydro-quinazolin-7-yl)-pyrimidin-4-ylamino]-ethyl}-1H-indole-2-carbonitrile], the results for the IC50 on PTGER2 (EP2) and at PTRGER4 (EP4) were 0.01 µM and 0.003 µM, respectively.

Take `COc1ccc(F)c2c1cc(C#N)n2CCNc1cc(-c2ccc3c(=O)n(C)[nH]c3c2)ncn1` [Example 920, 7-Fluoro-4-methoxy-1-{2-[6-(2-methyl-3-oxo-2,3-dihydro-1H-indazol-6-yl)-pyrimidin-4-ylamino]-ethyl}-1H-indole-2-carbonitrile]: the IC50 against PTGER2 (EP2) was 0.039 µM; against PTRGER4 (EP4), 0.068 µM.

What is called IC50 is the point on the concentration scale where inhibition reaches its midpoint. A lower IC50 goes with greater potency.
